Reference: US7932036B1, “Methods of determining acute myeloid leukemia response to treatment with farnesyltransferase” (Veridex, LLC, priority 2008, dated 2011)

What was measured:
[1] = test system: previously untreated, poor-risk acute myeloid leukemia (AML); assay: Phase 2 study of tipifarnib in older adults with previously untreated, poor-risk AML: clinical response and overall survival; assay type: in vivo, human
Source text: The current study utilized 67 bone marrow samples collected from an open label, multicenter, non-comparative phase 2 study investigating the efficacy and safety of farnesyltransferase inhibition with tipifarnib (R115777, ZARNESTRA®) in 158 older adults with previously untreated, poor-risk AML. The clinical results have been published elsewhere. Lancet et al. (2006).
Lancet et al. (2006). Briefly, HI was defined as any bone marrow blast count less than 5% or a reduction in bone marrow blasts by at least half. Progressive disease (PD) was defined as either >50% increase in bone marrow or circulating blast % from baseline, or new appearance of circulating blasts (on at least 2 consecutive occasions). Stable disease (SD) was defined as any response not meeting CR, PR, HI, or PD criteria.
This study examined gene expression profiles of leukemic bone marrow samples from patients enrolled in a Phase 2 clinical trial of the farnesyltransferase inhibitor tipifarnib in elderly patients with previously untreated poor-risk acute myelogenous leukemia. Lancet et al. (2006). Bone marrow from 67 patients was collected before treatment with tipifarnib and leukemic myeloid cells were enriched by Ficoll-density centrifugation (Table 1). Good quality total RNA from 13 responders (9 CR, 4 HI), 8 stable disease and 13 progressive disease patients was amplified, labeled, and hybridized to the Affymetrix U133A GeneChip. A total of 30 samples were evaluated by qPCR for validation of specific genes and 32 samples were evaluated for N-Ras mutational status.

[2] = test system: relapsed or refractory AML; assay: Independent set of 54 relapsed/refractory AML patients treated with tipifarnib; assay type: in vivo, human; conditions: for difference in overall survival between predicted responders and progressors: relapsed/refractory AML
Source text: We next performed external validation of the TSP classifier in an independent microarray dataset comprising of 54 relapsed/refractory AML patient samples. 20070048782. Importantly, a diagnostic assay that aims to predict response to a cancer therapy should have a high sensitivity (and negative predictive value) since it is important to capture as many potential responders as possible. Therefore, to define an appropriate cutoff for testing the TSP classifier we considered the need to obtain a high sensitivity of predicting responders while maintaining an acceptable level of specificity. In the training set, the level of specificity that could be achieved ranged from approximately 30% to 100% when the sensitivity was set at 100% to 80%, respectively. To ensure the classifier would predict as many responders as possible we tested a conservative cutoff that provided a specificity of approximately 60% in the training set. When this cutoff was applied to the independent testing set of relapsed/refractory AML, the RASGRP1:APTX gene classifier stratified responders with 92% NPV and 27.6% PPV (compared to 18.5% prevalence) (FIG. 3C). The associated odds ratio for being a responder was 4.38.
In the absence of a larger independent set of newly diagnosed AML samples we also utilized 54 relapsed or refractory AML samples from our previous investigation as an independent testing set (20070048782). […] Since the prevalence of responders in that dataset was 18% this represents an improvement of overall response of approximately 50%. […] Importantly we found no association with the two-gene classifier and patient prognosis in an independent set of AML patients who were treated with chemotherapeutics. […] Further work needs to be done to clarify whether the RASGRP1:APTX expression ratio has utility for other classes of FTIs.

[3] = Kaplan Meier, RASGRP1 gene classifier, newly diagnosed AML (FIG. 1B)
[4] = RASGRP1:APTX qPCR classifier, cut-point 0, 30 newly diagnosed AML samples

Cn1cncc1[C@@](N)(c1ccc(Cl)cc1)c1ccc2c(c1)c(-c1cccc(Cl)c1)cc(=O)n2C [tipifarnib]
median overall survival of the responders [1, 3]: 386 days
median overall survival of those with progressive disease [1, 3]: 68 days
median overall survival of the predicted resistant patients [1, 4]: 82 days
median overall survival of those classified as responders [1, 4]: 295 days
difference in overall survival between predicted responders and non-responders ([1]; RASGRP1:APTX top scoring pair, training set, newly diagnosed AML): 357 days
prevalence of responders ([2]; 54 relapsed/refractory AML patient samples): 18%
difference in overall survival between predicted responders and progressors ([2]; RASGRP1:APTX TSP classifier): 98 days
difference in overall survival between predicted responders and progressors ([2]; RASGRP1 alone): 56 days
median overall survival of predicted responders versus patients predicted to be resistant ([2]; two-gene classifier, relapsed or refractory AML): approximately 3 fold
